Here are results for 13 compounds from patent US10501453B2, “Benzothiazole or benzoxazole compounds as SUMO activators” (Icahn School of Medicine at Mount Sinai, priority 2012, dated 2019).

The test system of data set [1] is HEK-293 cells. The data set is described as follows: Toxicity (Table 2; cytotoxicity in the compound screen).
Data set [2] concerns YFP-SUMO1. The data set is described as follows: YFP-SUMO1 accumulation (cell image) in HEK-293 cells expressing YFP-SUMO1 and pcDNA3.0-SERCA2a. It counts as cell-based. The settings on record: increase vs. DMSO; for fold induction at 10 µM: Homo sapiens, HEK293, 24 hours; for YFP accumulation: 10 μM, 24 hours. The source says: (§1) The following antibodies were used for immunoblotting and immunoprecipitation (IP): polyclonal anti-SERCA2a (21th century Biochem Inc.), monoclonal anti-GAPDH (Sigma-Aldrich, catalog no. G8795), monoclonal anti-SUMO 1 (Cell Signaling Technology Inc., catalog no. 4930), anti-mouse horseradish peroxidase (HRP) (Pierce Biotechnology Inc., catalog no. 32430), and anti-rabbit HRP (Pierce Biotechnology Inc., catalog no. 32460). YFP-tagged SUMO1, pcDNA3.0-SERCA2a, and HA-tagged Ubc9 plasmids were used for the transfection. The plasmid DNA was amplified in the Escherichia coli strain DH5a and extracted by using a commercial purification kit (Qiagen, catalog no. 12263). Purified plasmid was resuspended in sterile TE buffer (10 mM Tris-HCl and 1 mM EDTA, pH 7.6). Only the preparation highest purity (A260/A280>1.8) was used for transfection. 1 μg of each plasmid was used for transfection. HEK-293 cells (American Type Culture Collection, catalog no. CRL-1873) were grown at 37° C. and under a 5% CO2 humidified atmosphere in Dulbecco's modified Eagle's medium (DMEM, Cellgro, catalog no. 10-0 13-CM) containing 10% fetal bovine serum (SAFC Bioscience, catalog no. 12107) and 100 i.u of penicillin/ml and 100 μg of streptomycin/ml. HEK-293 cells were seeded at a density of 3-5×10^5 cells per 60 mm culture dish in DMEM. The cells were transiently transfected using Lipofectamine 2000 (Invitrogen, catalog no. 11668) with indicated expression plasmids. After 24 hours, the cells were treated with either small molecules or dimethyl sulfoxide (DMSO, Sigma-Aldrich, catalog no. D2650).
(§2) Each compound was added at 10 μM. DMSO was used as a control. After 24 hours at 37° C., SERCA2a SUMOylation and functional analysis were determined.
Cellular permeability and potential activity of the compounds were examined by tracking of the YFP-SUMO1. HEK-293 cells expressing YFP-SUMOI and pcDNA3.0-SERCA2a were incubated with either 10 μM DMSO or 10 μM small molecules for 24 hours at 37° C. Fluorescent signals were monitored by fluorescence microscopy. HA-tagged Ubc9 expressing cells were served as a positive control.
The ability of the Example compound to SUMOylate SERCA2a was examined using an in vitro system in HEK 293 cells where both SERCA2a and SUMO 1 are expressed. The cellular permeability and potential activity of the Example compounds was examined by tracking of the YFP-SUM01. HEK-293 cells expressing YFP-SUM01 and pcDNA3.0-SERCA2a were treated with either 10 μM DMSO or 10 μM indicated Example 1 for 24 hrs. Fluorescent signals were monitored by fluorescence microscopy. HA-Ubc9 expressing cells were served as a positive control. The SERCA2a SUMOylation profiling was then analyzed by using the same cells (FIG. 1B, WCL, whole cell lysates; S-SERCA2a, SUMOylated SERCA2a).

A short description of data set [3]: Solubility (Table 2).
For data set [4], the system named is SERCA2a. Description: SERCA2a SUMOylation assay in HEK-293 cells (immunoprecipitation/immunoblotting). The following applies: compared with DMSO control; 10 μM. It counts as cell-based.
Source text: as §1, §2
Equal amounts of protein from either small molecule treated or DMSO treated cells or immunoprecipitates were resolved by 7.5% SDS-PAGE and transferred to nitrocellulose membranes (Bio-Rad, catalog no. 162-0112). The membranes were blocked for 1 hour at room temperature with 5% non-fat milk (Cell Signaling Technology Inc., catalog no. 9999) in TBST (10 mM Tris-HCl, 150 mM NaCl, and 0.05% tween-20, pH 8.0). The blots were incubated with specific primary antibodies at 4° C. for overnight. The blots were then washed five times for 10 minutes each with TBST and incubated for 1 hour with HRP-conjugated secondary antibodies in TBST with 5% non-fat milk. After five times TBST washes, the protein bands were visualized with enhanced chemiluminescence (Pierce Biotechnology Inc., catalog no. 32132) and exposed to x-ray film (Denville Scientific Inc., catalog no. E3012). GAPDH expression provided an internal control.
Post-transfection (48 hours), the HEK-293 cells were rinsed twice with phosphate-buffered saline (PBS, Cellgro, catalog no. 21-040-CM) and lysed in 1% Nonidet P-40 lysis buffer (Boston Bioproducts, catalog no. BP-119) with 10 mM N-ethylmaleimide (NEM, Sigma-Aldrich, catalog no. N3876) and […] inhibitor cocktail (Complete Mini Tablet, Roche Applied Science, catalog no. 11836153001). 2 mg of protein were mixed with the anti-SERCA2a antibodies for overnight at 4° C. in lysis buffer. Pre-washed protein A-Separose beads (Pierce Biotechnology Inc., catalog no. 20333) was added to each sample and incubated 1 hour at 4° C. with gentle rocking. Immunocomplexes were washed with lysis buffer three times and precipitated by centrifugation at 12000×g for 10 seconds. The immunocomplexes were resuspended in SDS sample buffer and subjected to immunoblotting. Controls for the immunoprecipitations were performed using an anti-rabbit IgG equal to that of the primary precipitating antibody. Ten percent of whole cell lysates used in the immunoprecipitation was loaded for subsequent immunoblotting.
The ability of the Example compound to SUMOylate SERCA2a was examined using an in vitro system in HEK 293 cells where both SERCA2a and SUMO 1 are expressed. […]
For orientation: In western blotting, separated proteins are transferred to a membrane and probed.

The mark [5] stands for this setting: DMSO, organic solvent or mixture.

Converted amounts (≈) assume the structure as drawn.

For orientation: fold induction means the signal under treatment as a multiple of the control signal. A lower fold induction goes with a weak induction. Broadly, the solubility is the dissolved amount per volume that the medium holds. For `COc1cccc2sc(Nc3nnc(-c4ccc(F)cc4)o3)nc12` [Example 5, 5-(4-fluorophenyl)-N-(4-methoxybenzo[d]thiazol-2-yl)-1,3,4-oxadiazol-2-amine], in data set [1], the Toxicity entry is reported as “Non-toxic”. This compound showed a fold induction at 10 µM in data set [2] of 2.54. In addition, the solubility in data set [3] (setting [5]) was 10 mM (≈ 3420 µg/mL). Also, the “SERCA2a SUMOylation” value in data set [4] is reported as “Not statistically significant”.

Take `COc1ccc(-c2nnc(Nc3nc4c(OC)cccc4s3)o2)c(OC)c1` [Example 6, 5-(2,4-dimethoxyphenyl)-N-(4-methoxybenzo[d]thiazol-2-yl)-1,3,4-oxadiazol-2-amine]: the Toxicity in data set [1] is given as 30%. The same compound showed a fold induction at 10 µM in data set [2] of 2.93. Besides, in data set [3] (setting [5]), the solubility came out at 10 mM (≈ 3840 µg/mL). The “SERCA2a SUMOylation” value in data set [4] is reported as “Not statistically significant”.

As to `Fc1cccc2sc(Nc3nnc(-c4ccccc4)o3)nc12` [Example 7, N-(4-fluorobenzo[d]thiazol-2-yl)-5-phenyl-1,3,4-oxadiazol-2-amine], in data set [1], the Toxicity result is “Non-toxic”. The compound further showed a fold induction at 10 µM in data set [2] of 2.2. Besides, the solubility in data set [3] (setting [5]) was 10 mM (≈ 3120 µg/mL). For the same compound, in data set [4], the “SERCA2a SUMOylation” value was “Not statistically significant”.

`COc1ccc2nc(Nc3nnc(-c4ccccc4OC)o3)sc2c1` [Example 8, N-(6-methoxybenzo[d]thiazol-2-yl)-5-(2-methoxyphenyl)-1,3,4-oxadiazol-2-amine] came in with a Toxicity in data set [1] of 30%. The compound further returned a fold induction at 10 µM in data set [2] of 2.37. In addition, the solubility in data set [3] (setting [5]) came out at 10 mM (≈ 3540 µg/mL). The “SERCA2a SUMOylation” value in data set [4] was “Not statistically significant”.

Consider `COc1ccc(-c2nnc(Nc3nc4ccc(OC)cc4s3)o2)cc1` [Example 9, N-(6-methoxybenzo[d]thiazol-2-yl)-5-(4-methoxyphenyl)-1,3,4-oxadiazol-2-amine], for which the Toxicity entry in data set [1] is “Toxic”. For the same compound, the YFP accumulation entry in data set [2] is reported as “Active”. Besides, in data set [3] (in DMSO (printed for the 10 mM cells)), the solubility entry was “Crystallized at 2.5”. Further, in data set [4], the “SERCA2a SUMOylation” value is given as “Not statistically significant”.

Compound `COc1ccc2nc(Nc3nnc(-c4ccc(Cl)cc4)o3)sc2c1` [Example 10, 5-(4-chlorophenyl)-N-(6-methoxybenzo[d]thiazol-2-yl)-1,3,4-oxadiazol-2-amine] displayed a Toxicity in data set [1] of more than 50%. In addition, in data set [2], the YFP accumulation entry is “Active”. Moreover, the solubility in data set [3] (setting [5]) is less than 2.5 mM. The “SERCA2a SUMOylation” value in data set [4] was “Not statistically significant”.

For `Fc1ccc2nc(Nc3nnc(-c4ccccc4Cl)o3)sc2c1` [Example 11, 5-(2-chlorophenyl)-N-(6-fluorobenzo[d]thiazol-2-yl)-1,3,4-oxadiazol-2-amine], in data set [1], the Toxicity was more than 50%. For the same compound, in data set [2], the YFP accumulation result is recorded as “Active”. In data set [3] (setting [5]), the solubility was less than 2.5 mM. Also, the “SERCA2a SUMOylation” value in data set [4] was “Not statistically significant”.

For the compound `Fc1ccc(-c2nnc(Nc3nc4ccc(F)cc4s3)o2)cc1` [Example 12, N-(6-fluorobenzo[d]thiazol-2-yl)-5-(4-fluorophenyl)-1,3,4-oxadiazol-2-amine], in data set [1], the Toxicity is more than 50%. The YFP accumulation result in data set [2] is listed as “Active”. Moreover, the solubility in data set [3] (setting [5]) is less than 2.5 mM. Also, the “SERCA2a SUMOylation” value in data set [4] is given as “Not statistically significant”.

Turning to `COc1cccc(-c2nnc(Nc3nc4ccc(F)cc4s3)o2)c1` [Example 13, N-(6-fluorobenzo[d]thiazol-2-yl)-5-(3-methoxyphenyl)-1,3,4-oxadiazol-2-amine], the Toxicity in data set [1] is reported as more than 50%. Besides, the YFP accumulation result in data set [2] was “Active”. Also, the solubility in data set [3] (setting [5]) is less than 2.5 mM. In addition, the “SERCA2a SUMOylation” value in data set [4] was “Not statistically significant”.

`COc1cccc(-c2nnc(Nc3nc4cc(OC)ccc4s3)o2)c1` [Example 15, N-(5-methoxybenzo[d]thiazol-2-yl)-5-(3-methoxyphenyl)-1,3,4-oxadiazol-2-amine] came in with a Toxicity in data set [1] of more than 50%. The YFP accumulation entry in data set [2] is listed as “Active”. Further, the solubility in data set [3] (setting [5]) was less than 2.5 mM. In addition, the “SERCA2a SUMOylation” value in data set [4] is “Not statistically significant”.

Compound `COc1ccc(-c2nnc(Nc3nc4cc(OC)ccc4s3)o2)cc1` [Example 16, N-(5-methoxybenzo[d]thiazol-2-yl)-5-(4-methoxyphenyl)-1,3,4-oxadiazol-2-amine] showed a Toxicity in data set [1] of more than 50%. Further, in data set [2], the YFP accumulation result is on record as “Active”. The solubility in data set [3] (setting [5]) was less than 2.5 mM. Further, in data set [4], the “SERCA2a SUMOylation” value is on record as “Not statistically significant”.

With `COc1ccc(-c2nnc(Nc3nc4cc(OC)c(OC)cc4s3)o2)cc1` [Example 17, N-(5,6-dimethoxybenzo[d]thiazol-2-yl)-5-(4-methoxyphenyl)-1,3,4-oxadiazol-2-amine], the Toxicity entry in data set [1] was “Non-toxic”. The compound also registered a fold induction at 10 µM in data set [2] of 2.2. For the same compound, the solubility in data set [3] (setting [5]) was found to be 5 mM (≈ 1920 µg/mL). In addition, the “SERCA2a SUMOylation” value in data set [4] is reported as “Not statistically significant”.

`COc1ccc(-c2nnc(Nc3nc4ccc(SC)cc4s3)o2)cc1` [Example 18, 5-(4-methoxyphenyl)-N-(6-(methylthio)benzo[d]thiazol-2-yl)-1,3,4-oxadiazol-2-amine] came in with a Toxicity in data set [1] of more than 50%. For the same compound, the YFP accumulation result in data set [2] is “Active”. Further, in data set [3] (setting [5]), the solubility was less than 2.5 mM. Moreover, in data set [4], the “SERCA2a SUMOylation” value is given as “Not statistically significant”.
